Experimental findings from patent US9969699B2, “Cancer cell growth inhibitor, anticancer agent, and method for screening same, as well as novel compound” (Microbial Chemistry Research Foundation, priority 2014, dated 2018) are described below.

Read-outs that look alike come from different tables or passages of the source. Some results are limits rather than exact numbers.

Assay [1] concerns NIH3T3 cells. Kind of assay: 2D cell culture step (environment with adhesion scaffold), proliferation of NIH3T3 cells. The format is cell-based. The conditions noted are these: Mus musculus, read-out: IC50 2D cell culture step. The procedure:
Note that, as a negative control, the NIH3T3 cells at 2×10^3 cells/100 were seeded to the same plate in a volume of 100 μL per well and cultured at 37° C. in the presence of 5% CO2 for 3 days without the addition of the test substance.
Note that, Dulbecco's Modified Eagle Medium supplemented with 5% FBS was used for the culture.
A cell proliferation inhibition rate in the 2D cell culture step was calculated according to (Expression 2) below. Cell proliferation inhibition rate(%)=(1−D/E)×100 (Expression 2)
In the (Expression 2), D denotes the number of viable NIH3T3 cells when the test substance was added, and E denotes the number of viable NIH3T3 cells when the test substance was not added.

For assay [2], the system named is NIH3T3/EGFR vIII cells. In words: 3D cell culture step (environment without adhesion scaffold), proliferation of NIH3T3/EGFR vIII cells. The format is cell-based, mouse. Conditions: for IC50: Mus musculus, 72 h, NIH3T3/EGFR vIII cells, Ultra Low Attachment plate, 3 days, […]-GLO.
Setting [3] is: 72 h, NIH3T3 cells, TC-treated plate, 3 days, […]-GLO.

`C#Cc1cccc(Nc2ncnc3cc(OCCOC)c(OCCOC)cc23)c1` [Erlotinib, reference compound]: the IC50 in assay [1] (NIH3T3, 72 h) came out at 50 µM.

As to `Cc1ccc2nc(-c3cc(Br)ccc3N)c(=O)[nH]c2c1` [Structural Formula (2), 3-(2-amino-5-bromophenyl)-7-methylhydroquinoxalin-2-one], the half-inhibitory concentration (IC50) was 0.1 µM in assay [2] and greater than 10 µM in assay [1] (setting [3]).

For the compound `CC(=O)Nc1ccc(Br)cc1-c1nc2ccccc2[nH]c1=O` [Structural Formula (3), N-[4-bromo-2-(3-oxo(4-hydroquinoxalin-2-yl))phenyl]acetamide], the values for the IC50 in assay [2] and in assay [1] (setting [3]) were 0.5 µM and greater than 10 µM, respectively.

As for `Cc1ccc(N)c(-c2nc3ccccc3[nH]c2=O)c1` [Structural Formula (4), 3-(2-amino-5-methylphenyl)hydroquinoxalin-2-one], the values for the IC50 in assay [2] and in assay [1] (setting [3]) were 0.5 µM and greater than 10 µM, respectively.

Take `O=C(O)CCCC(=O)Nc1ccc(Br)cc1-c1nc2ccccc2[nH]c1=O` [Structural Formula (5), 4-{N-[4-bromo-2-(3-oxo(4-hydroquinoxalin-2-yl))phenyl]carbamoyl}butanoic acid]: the IC50 is 0.4 µM in assay [2] and greater than 10 µM in assay [1] (setting [3]).

Take `Nc1ccc(Cl)cc1-c1nc2ccccc2[nH]c1=O` [Structural Formula (6), 3-(2-amino-5-chlorophenyl)hydroquinoxalin-2-one]: in assay [2] (3D cell culture step), the “cell proliferation inhibiting activity compared with AG1478, Gefitinib and Erlotinib” value is on record as “more significant cell proliferation inhibiting activity”. For the same compound, the values for the IC50 in assay [2] and in assay [1] (setting [3]) were 0.014 µM and greater than 10 µM, respectively.

For the compound `Nc1ccc(F)cc1-c1nc2ccccc2[nH]c1=O` [Structural Formula (7), 3-(2-Amino-5-fluorophenyl)-2(1H)-quinoxalinone], the IC50 in assay [2] is 0.34 µM; in assay [1] (setting [3]), greater than 10 µM.

As for `Nc1ccccc1-c1nc2ccccc2[nH]c1=O` [Structural Formula (9), 3-(2-aminophenyl)-2(1H)-quinoxalinone], the 50% inhibitory concentration (IC50) in assay [2] and in assay [1] (setting [3]) was greater than 10 µM throughout.

`CNc1ccc(Br)cc1-c1nc2ccccc2[nH]c1=O` [Structural Formula (10), 3-[5-bromo-2-(methylamino)phenyl]-2(1H)-quinoxalinone]: the IC50 in assay [2] and in assay [1] (setting [3]) was greater than 10 µM in each case.

For `CCNc1ccccc1-c1nc2ccccc2[nH]c1=O` [Structural Formula (11), 3-[2-(ethylamino)phenyl]-2(1H)-quinoxalinone], the IC50 in assay [2] and in assay [1] (setting [3]) was greater than 10 µM in each case.

As for `O=c1[nH]c2ccccc2nc1-c1ccccc1NCc1ccc(F)cc1` [Structural Formula (12), 3-{2-[(4-fluorobenzyl)amino]phenyl}-2(1H)-quinoxalinone], the IC50 in assay [2] and in assay [1] (setting [3]) was greater than 10 µM each time.

`Cn1c(=O)c(-c2ccccc2N)nc2ccccc21` [Structural Formula (13), 3-(2-aminophenyl)-1-methyl-2(1H)-quinoxalinone]: the IC50 in assay [2] and in assay [1] (setting [3]) was greater than 10 µM in each case.

Take `CCOC(=O)Cn1c(=O)c(-c2cc(Br)ccc2N)nc2ccccc21` [Structural Formula (14), ethyl 2-[3-(2-amino-5-bromophenyl)-2-oxohydroquinoxalinyl]acetate]: the IC50 in assay [2] was 10 µM; in assay [1] (setting [3]), greater than 10 µM.

`O=C(Nc1ccc(Br)cc1-c1nc2ccccc2[nH]c1=O)c1ccccc1` [Structural Formula (15)]: the IC50 in assay [2] and in assay [1] (setting [3]) was greater than 10 µM each time.

By IC50 is commonly meant the concentration needed to halve the response being measured.
